Source: paper PMC12396409, “Screening and hit evaluation of a microbial metabolite library against the pathogenic Plasmodium falciparum and Toxoplasma gondii parasites” (International Journal for Parasitology: Drugs and Drug …, 2025)
Read-outs that look alike come from different tables or passages of the source.

Assays:
[1] = test system: P. falciparum 3D7 parasites; assay: P. falciparum growth inhibition assay, 2-cycle (120 h treatment), delayed-death screen and dose-response; format: cell-based, Plasmodium falciparum; conditions: for activity at 2 µg/mL: Plasmodium falciparum
[2] = test system: T. gondii RH strain (RH-Tub-eYFP) tachyzoites; assay: microbe, parasite or virus in culture; format: cell-based, Toxoplasma gondii; conditions: 72 h; for percent parasite growth at 2 µg/mL: Toxoplasma gondii
[3] = test system: P. falciparum 3D7 parasites; assay: P. falciparum growth inhibition assay, 1-cycle (72 h treatment), SYBR DNA staining (library screen at 2 μg/mL and dose-response); format: cell-based, Plasmodium falciparum; conditions: for activity at 2 µg/mL: Plasmodium falciparum
[4] = T. gondii, parasite screen 2 μg/mL, % growth, replicate 1, read-out: Tg_72h_%Growth_Rep1
[5] = T. gondii, parasite screen 2 μg/mL, % growth, replicate 2, read-out: Tg_72h_%Growth_Rep2
[6] = T. gondii, 2 μg/mL, values are growth (% of control)

CN(C)[C@@H]1C(O)=C(C(N)=O)C(=O)[C@@]2(O)C(O)=C3C(=O)c4c(O)cccc4[C@@](C)(O)[C@H]3[C@H](O)[C@@H]12 [BIA-O1336]
Pf_120h_%Growth_Rep1 ([1]; P. falciparum 3D7, 120 h, parasite screen at 2 μg/mL, % growth, replicate 1): 15.40%
Pf_120h_%Growth_Rep2 ([1]; P. falciparum 3D7, 120 h, parasite screen at 2 μg/mL, % growth, replicate 2): 14.90%
Tg_72h_%Growth_Rep1 ([2]; T. gondii, parasite screen at 2 μg/mL, % growth, replicate 1): 105.05%
Tg_72h_%Growth_Rep2 ([2]; T. gondii, parasite screen at 2 μg/mL, % growth, replicate 2): 93.22%
Pf_72h_%Growth_Rep1 ([3]; P. falciparum 3D7, 72 h, parasite screen at 2 μg/mL, % growth, replicate 1): 45.04%
Pf_72h_%Growth_Rep2 ([3]; P. falciparum 3D7, 72 h, parasite screen at 2 μg/mL, % growth, replicate 2): 49.67%

COC1=C(N)C(=O)c2nc(-c3nc(C(=O)O)c(C)c(-c4ccc(OC)c(OC)c4O)c3N)ccc2C1=O [Streptonigrin]
activity at 2 µg/mL ([1]; 3D7, 120 h, P. falciparum, 120 h, parasite screen 2 μg/mL, % growth, replicate 1, read-out: Pf_120h_%Growth_Rep1): 43.2%
activity at 2 µg/mL ([1]; 3D7, 120 h, P. falciparum, 120 h, parasite screen 2 μg/mL, % growth, replicate 2, read-out: Pf_120h_%Growth_Rep2): 6.18%
percent parasite growth at 2 µg/mL [2, 4]: 3.6%
percent parasite growth at 2 µg/mL [2, 5]: 2.59%
activity at 2 µg/mL ([3]; 3D7, 72 h, P. falciparum, 72 h, parasite screen 2 μg/mL, % growth, replicate 1, read-out: Pf_72h_%Growth_Rep1): 2.61%
activity at 2 µg/mL ([3]; 3D7, 72 h, P. falciparum, 72 h, parasite screen 2 μg/mL, % growth, replicate 2, read-out: Pf_72h_%Growth_Rep2): -8.29%

CC(=O)OC1CCC(C)C2C1C=C(C)C1C(C)=CCCC(C)=CC3(C)C=C(C)C(C)CC34OC(=O)C(=C(O)C12C)C4=O (stereo not drawn) [Tetromycin A]
Pf_120h_%Growth_Rep1 ([1]; P. falciparum, 120 h, screen at 2 μg/mL, replicate 1): 96.09%
Pf_120h_%Growth_Rep2 ([1]; P. falciparum, 120 h, screen at 2 μg/mL, replicate 2): 91.15%
Tg_72h_%Growth_Rep1 ([2]; T. gondii, screen at 2 μg/mL, replicate 1): 141.34%
Tg_72h_%Growth_Rep2 ([2]; T. gondii, screen at 2 μg/mL, replicate 2): 89.51%
Pf_72h_%Growth_Rep1 ([3]; P. falciparum, 72 h, screen at 2 μg/mL, replicate 1): 87.03%
Pf_72h_%Growth_Rep2 ([3]; P. falciparum, 72 h, screen at 2 μg/mL, replicate 2): 84.23%

COc1cc(C)c(C(=O)Oc2cc(C)c(C(=O)O)c(O)c2)c(O)c1 [Evernic acid]
activity at 2 µg/mL ([1]; 3D7, library screen at 2 μg/mL, 120 h, % growth, replicate 1, read-out: Pf_120h_%Growth_Rep1): 97.5%
activity at 2 µg/mL ([1]; 3D7, library screen at 2 μg/mL, 120 h, % growth, replicate 2, read-out: Pf_120h_%Growth_Rep2): 94.9%
percent parasite growth at 2 µg/mL ([2]; library screen at 2 μg/mL, % growth, replicate 1, read-out: Tg_72h_%Growth_Rep1): 133%
percent parasite growth at 2 µg/mL ([2]; library screen at 2 μg/mL, % growth, replicate 2, read-out: Tg_72h_%Growth_Rep2): 102%
activity at 2 µg/mL ([3]; 3D7, library screen at 2 μg/mL, 72 h, % growth, replicate 1, read-out: Pf_72h_%Growth_Rep1): 86.3%
activity at 2 µg/mL ([3]; 3D7, library screen at 2 μg/mL, 72 h, % growth, replicate 2, read-out: Pf_72h_%Growth_Rep2): 86.5%

C=C(NC(=O)C(=C)NC(=O)c1ccc2c(n1)-c1coc(n1)C(=C)NC(=O)C(=C)NC(=O)c1nc(oc1C)C(=C)NC(=O)C(C(C)(C)O)NC(=O)C(=C)NC(=O)c1coc(n1)/C(=C/C)NC(=O)[C@H]([C@@H](C)O)NC(=O)c1csc-2n1)C(N)=O (stereo partly drawn) [Geninthiocin]
Pf_120h_%Growth_Rep1 ([1]; library screen at 2 μg/mL, 120 h, % growth, replicate 1): 87.82%
Pf_120h_%Growth_Rep2 ([1]; library screen at 2 μg/mL, 120 h, % growth, replicate 2): 106.01%
Tg_72h_%Growth_Rep1 ([2]; library screen at 2 μg/mL, % growth, replicate 1): 124.28%
Tg_72h_%Growth_Rep2 ([2]; library screen at 2 μg/mL, % growth, replicate 2): 90.80%
Pf_72h_%Growth_Rep1 ([3]; library screen at 2 μg/mL, 72 h, % growth, replicate 1): 87.80%
Pf_72h_%Growth_Rep2 ([3]; library screen at 2 μg/mL, 72 h, % growth, replicate 2): 33.98%

Cc1cc(O)c2c(c1)O[C@@]1(C)CC[C@H]3C(C)(C)CCC[C@]34CO[C@@H]2[C@H]41 [Siccanin]
activity at 2 µg/mL ([1]; 3D7, P. falciparum, 120 h, parasite screen 2 μg/mL, % growth, replicate 1, read-out: Pf_120h_%Growth_Rep1): 73%
activity at 2 µg/mL ([1]; 3D7, P. falciparum, 120 h, parasite screen 2 μg/mL, % growth, replicate 2, read-out: Pf_120h_%Growth_Rep2): 114%
percent parasite growth at 2 µg/mL [2, 4]: 99.3%
percent parasite growth at 2 µg/mL [2, 5]: 83.6%
activity at 2 µg/mL ([3]; 3D7, P. falciparum, 72 h, parasite screen 2 μg/mL, % growth, replicate 1, read-out: Pf_72h_%Growth_Rep1): 76%
activity at 2 µg/mL ([3]; 3D7, P. falciparum, 72 h, parasite screen 2 μg/mL, % growth, replicate 2, read-out: Pf_72h_%Growth_Rep2): 49.5%

COc1cc2c(oc(=O)c3cc(C)cc(OC)c32)c2c([C@@H]3O[C@H](C)[C@H](O)[C@@](C)(O)[C@H]3O)ccc(O)c12 [Chrysomycin B]
activity at 2 µg/mL ([1]; 3D7, 120 h, P. falciparum, 120 h, screen at 2 μg/mL, replicate 1, read-out: Pf_120h_%Growth_Rep1): 73%
activity at 2 µg/mL ([1]; 3D7, 120 h, P. falciparum, 120 h, screen at 2 μg/mL, replicate 2, read-out: Pf_120h_%Growth_Rep2): 73.7%
Mean ([2]; T. gondii, 2 μg/mL, mean of both replicates, growth (% of control)): 21.06
Replicate 1 [2, 6]: 25.01
Replicate 2 [2, 6]: 17.10
percent parasite growth at 2 µg/mL ([2]; T. gondii, screen at 2 μg/mL, replicate 1, read-out: Tg_72h_%Growth_Rep1): 25%
percent parasite growth at 2 µg/mL ([2]; T. gondii, screen at 2 μg/mL, replicate 2, read-out: Tg_72h_%Growth_Rep2): 17.1%
activity at 2 µg/mL ([3]; 3D7, 72 h, P. falciparum, 72 h, screen at 2 μg/mL, replicate 1, read-out: Pf_72h_%Growth_Rep1): 67.5%
activity at 2 µg/mL ([3]; 3D7, 72 h, P. falciparum, 72 h, screen at 2 μg/mL, replicate 2, read-out: Pf_72h_%Growth_Rep2): 64.1%
